The test system of data set [1] is Vero. As to the kind of experiment: Cytotoxicity against African green monkey Vero cells after 72 hrs. In kind it is cell-based. The settings on record: Chlorocebus sabaeus.
For data set [2], the system named is Plasmodium falciparum. As to the kind of experiment: Antimalarial activity against multidrug-resistant Plasmodium falciparum K1 by microculture radioisotope assay. Format: functional, organism-based.

Active and inactive are the calls of the source. No cut-off for these calls is given here.

A word on the IC50: it is the concentration that gives 50% inhibition.

Consider `Cc1c2ccncc2c(C)c2c1[nH]c1ccccc12` [ELLIPTECINE], for which, in data set [1], the IC50 was 2030 nM. On to `COC1=CC(=O)C(O)=C(C)C1=O`, for which the Activity result in data set [1] is listed as “Not Active”. The outcome in data set [2] was inactive.

In the case of `C[C@H]1[C@@H](O)O[C@@H]2O[C@@]3(C)CC[C@H]4[C@H](C)CC[C@@H]1[C@@]24OO3` [ARTENIMOL], the midpoint of inhibition in data set [2], the IC50, lay at 3.3 nM. Turning to `COc1cc2c3c(oc2c(C)c1O)C(=O)C(C)=CC3=O` [XYLARIAQUINONE A], the IC50 was over 184000 nM in data set [1] and 6680 nM in data set [2]. For `COC1=CC(=O)C(Cl)=C(C)C1=O`, in that order: 1350 nM and 1840 nM. On to `C[C@H]1OC(=O)c2c(O)cccc2C1O` (stereo not given in full), for which, in data set [1], the Activity entry is “Not Active”. Moreover, the result in data set [2] was inactive.
